Counter-ions that a name gives are not always drawn.
Tests used:
[1] = target: T1, GFP-K-rasG12V in MDCK or BHK cells (Homo sapiens, UniProt P01116, G12V); test: Confocal fluorescence microscopy of GFP-tagged full length constitutively active Ras (G12V); type: cell-based, canine (MDCK), hamster (BHK); conditions: 48 h
T1 construct: MDCK and BHK cells expressing GFP-tagged full length constitutively active Ras (G12V) proteins; expressed in transfected cells
Procedure: FIG. 2: Illustrates that fendiline HCl mislocalizes GFP-K-rasG12V but not GFP-H-rasG12V: (A) MDCK or BHK [Baby Hamster Kidney] cells expressing GFP-K-rasG12V or GFP-H-rasG12V were grown on cover slips, treated with vehicle or fendiline HCl (4 μg/mL for MDCK and 6 μg/mL for BHK) for 48 h and fixed with paraformaldehyde. Cells were imaged using a confocal microscope. (B) BHK cells expressing GFP-K-rasG12V or GFP-H-rasG12V (green) were treated with vehicle or fendiline HCl (6 μg/mL) for 48 h. Following treatment, cells were fixed and immuno-labeled with antibodies against PDI (ER marker-red) or p58 (golgi marker-red). Colocalization between GFP and the respective marker protein is shown in yellow. Shown are representative images from 3 independent experiments wherein experimentation was performed in accordance with principles described herein;
Cells were further analyzed using fluorescence microscopy, where cells were grown on coverslips, treated with 1% vehicle (DMSO) or varying concentrations of selected compounds for 48 h, and fixed with 4% paraformaldehyde. The coverslips were mounted in Mowiol® and visualized by confocal microscopy (Nikon A1) using a 60× objective. The cells were immuno-staining, where cells were fixed, permeabilized in 0.1% Triton in PBS for 30 min, and blocked with 0.2% bovine serum albumin and 0.2% fish skin gelatin in PBS for 30 min. […]

[2] = tested on: BHK cells expressing constitutively active H-ras with endogenous K-ras knocked down; test: K-ras knockdown (siRNA) in H-rasG12V cells, pERK Western blotting; type: cell-based, hamster; conditions: then 6 μg/mL for 48 h
Procedure: FIG. 7: Illustrates that H-rasG12V signals through endogenous K-ras: BHK cells stably expressing H-rasG12V were treated with vehicle or fendiline HCl (6 μg/mL) for 48 h. (A) ppMEK and ppERK in soluble protein fraction and pAkt levels in membrane protein fraction were measured by quantitative Western blotting. A representative blots are shown. (B) BHK cells stably expressing H-rasG12V were transfected with K-ras siRNA encoding plasmid. 24 h after transfection, cells were treated with vehicle or fendiline HCl (6 μg/mL) for a further 48 h. Whole cell lysates were prepared from serum starved cells and analyzed by quantitative Western blotting. Representative Western blots are shown. Data is shown as mean±SEM from 6 independent experiments. […] (*=p<0.05), and experimentation was performed in accordance with principles described herein;
BHK cells expressing GFP-tagged H-rasG12V were transfected with the ON-Target K-ras specific siRNA pool or non-targeting control siRNA pool (Dharmacon, Inc., Lafayette, Colo., USA) according to manufacturer's protocol. At 24 h post-transfection, the cells were treated with vehicle or Fendiline HCl; 48 h later (72 h total knockdown time) the cells were lysed for Western blot analysis. […]
Quantification of intensities was performed using FluorChemQ software.

[3] = target: T1, GFP-K-rasG12V in MDCK or BHK cells; test: Cellular fractionation (P100/S100) with quantitative Western blotting, GFP-K-rasG12V; type: cell-based, canine (MDCK), hamster (BHK); conditions: 4 μg/mL for MDCK and 6 μg/mL for BHK, 48 hours, vs vehicle
Procedure: Following treatment, membrane (P100) and soluble (S100) protein fractions were prepared and analyzed by quantitative Western blotting.
Preparation of whole-cell lysates: cells were lysed in Buffer B (50 mM Tris [pH 7.5], 75 mM NaCl, 25 mM NaF, 5 mM MgCl2, 5 mM EGTA, 1 mM dithiothreitol, 100 μM NaVO4, 1% Nonidet P-40 plus protease inhibitors). Cellular fractionation: cells were incubated in Buffer A (10 mm Tris-HCl, pH 7.5, 25 mm NaF, 5 mm MgCl2, 1 mm EGTA, 1 mm dithiothreitol, 100 μm NaVO4 plus protease inhibitors) for 30 minutes on ice and lysed by passing through a 27 G needle 30 times. The post nuclear supernatant was centrifuged at 100,000 g for 30 minutes and the membrane pellet was resuspended in Buffer A containing 1% Triton X-100.
SDS-PAGE and Western blotting with the specified antibody were performed using 20 μg of each whole cell lysate/P100 fraction and volumes of S100 equal to that of the corresponding P100. Signal was detected by enhanced chemiluminescence (SuperSignal; Pierce, Thermo Fisher Scientific, Rockford, Ill.) and imaged by FluorChemQ (Alpha Inotech, San Leandro, Calif., USA). Quantification of intensities was performed using FluorChemQ software.

CC(NCCC(c1ccccc1)c1ccccc1)c1ccccc1 (stereo not shown) [fendiline HCl]
localization of GFP-K-rasG12V relative to ER (PDI) and Golgi (p58) markers ([1]; BHK cells, 6 μg/mL, immunofluorescence): partially mislocalizes to the ER and golgi
inhibition of plasma membrane localization, K isoform compared to H and N ([1]; GFP-tagged full length Ras (G12V), 4 μg/mL for MDCK and 6 μg/mL for BHK): more potent inhibitor of plasma membrane localization of the K isoform as compared to H (FIG. 2A) and N
pERK levels after K-ras knockdown [2]: did not further reduce pERK levels
soluble fraction of GFP-K-rasG12V [3]: increases the soluble fraction of GFP-K-rasG12V

Source: patent US9474730B2, “Methods and compositions for use with K-ras mediated disorders” (Board of Regents of the University of Texas System, priority 2012, dated 2016)
